According to ChEMBL document CHEMBL2321828, “Interrogation of the Active Sites of Protein Arginine Deiminases (PAD1, -2, and -4) Using Designer Probes” (ACS Med Chem Lett, 2013):

Tests used:
[1] = biological target: Protein-arginine deiminase type-4 (Homo sapiens) (UniProt Q9UM07); assay: Ratio of Kinact to Ki for human PAD4 using BAEE as substrate after 30 mins
[2] = biological target: Protein-arginine deiminase type-2 (Mus musculus) (UniProt Q08642); assay: Ratio of Kinact to Ki for mouse PAD2 using BAEE as substrate after 30 mins
[3] = biological target: T1, Protein-arginine deiminase type-1 (Homo sapiens) (UniProt Q9ULC6); assay: Ratio of Kinact to Ki for human PAD1 using BAEE as substrate after 30 mins
T1 sequence (whole entry): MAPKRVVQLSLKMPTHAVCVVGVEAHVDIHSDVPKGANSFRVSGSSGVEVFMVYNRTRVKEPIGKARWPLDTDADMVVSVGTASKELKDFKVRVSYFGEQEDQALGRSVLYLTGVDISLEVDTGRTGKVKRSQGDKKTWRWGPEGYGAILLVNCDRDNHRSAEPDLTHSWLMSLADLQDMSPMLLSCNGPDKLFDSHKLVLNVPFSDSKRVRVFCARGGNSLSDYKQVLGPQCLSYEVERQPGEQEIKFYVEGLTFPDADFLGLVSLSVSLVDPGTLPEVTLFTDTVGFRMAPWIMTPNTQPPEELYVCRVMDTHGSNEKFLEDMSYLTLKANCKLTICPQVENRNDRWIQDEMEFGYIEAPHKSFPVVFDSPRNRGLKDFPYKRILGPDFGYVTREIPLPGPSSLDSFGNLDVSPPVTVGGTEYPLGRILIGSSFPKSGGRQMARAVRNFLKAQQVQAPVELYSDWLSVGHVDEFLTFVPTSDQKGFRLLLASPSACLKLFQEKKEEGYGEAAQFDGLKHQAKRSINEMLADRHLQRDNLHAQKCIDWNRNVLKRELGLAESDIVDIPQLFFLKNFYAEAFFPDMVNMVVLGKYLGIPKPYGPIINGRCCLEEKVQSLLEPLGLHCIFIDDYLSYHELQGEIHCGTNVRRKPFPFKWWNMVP

Sequence of Protein-arginine deiminase type-2 (Mus musculus) (Q08642 whole entry): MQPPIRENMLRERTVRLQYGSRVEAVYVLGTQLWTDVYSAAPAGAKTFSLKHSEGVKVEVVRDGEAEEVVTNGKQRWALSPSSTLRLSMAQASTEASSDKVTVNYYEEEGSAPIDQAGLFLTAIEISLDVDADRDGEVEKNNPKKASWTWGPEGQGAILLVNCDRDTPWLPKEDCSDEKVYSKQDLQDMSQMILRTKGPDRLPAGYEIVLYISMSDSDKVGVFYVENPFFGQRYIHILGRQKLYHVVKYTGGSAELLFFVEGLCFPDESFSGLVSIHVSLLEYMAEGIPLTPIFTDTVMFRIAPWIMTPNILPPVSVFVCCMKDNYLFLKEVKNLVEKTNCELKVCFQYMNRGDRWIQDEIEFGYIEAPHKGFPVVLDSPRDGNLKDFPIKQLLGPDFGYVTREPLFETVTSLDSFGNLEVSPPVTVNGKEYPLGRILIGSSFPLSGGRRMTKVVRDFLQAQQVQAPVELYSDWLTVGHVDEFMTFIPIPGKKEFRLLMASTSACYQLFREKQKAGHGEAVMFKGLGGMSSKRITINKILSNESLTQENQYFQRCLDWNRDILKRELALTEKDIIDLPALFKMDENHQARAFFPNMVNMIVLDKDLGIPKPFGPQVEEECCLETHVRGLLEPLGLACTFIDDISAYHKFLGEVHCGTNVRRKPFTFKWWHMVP
Sequence of Protein-arginine deiminase type-4 (Homo sapiens) (Q9UM07 whole entry): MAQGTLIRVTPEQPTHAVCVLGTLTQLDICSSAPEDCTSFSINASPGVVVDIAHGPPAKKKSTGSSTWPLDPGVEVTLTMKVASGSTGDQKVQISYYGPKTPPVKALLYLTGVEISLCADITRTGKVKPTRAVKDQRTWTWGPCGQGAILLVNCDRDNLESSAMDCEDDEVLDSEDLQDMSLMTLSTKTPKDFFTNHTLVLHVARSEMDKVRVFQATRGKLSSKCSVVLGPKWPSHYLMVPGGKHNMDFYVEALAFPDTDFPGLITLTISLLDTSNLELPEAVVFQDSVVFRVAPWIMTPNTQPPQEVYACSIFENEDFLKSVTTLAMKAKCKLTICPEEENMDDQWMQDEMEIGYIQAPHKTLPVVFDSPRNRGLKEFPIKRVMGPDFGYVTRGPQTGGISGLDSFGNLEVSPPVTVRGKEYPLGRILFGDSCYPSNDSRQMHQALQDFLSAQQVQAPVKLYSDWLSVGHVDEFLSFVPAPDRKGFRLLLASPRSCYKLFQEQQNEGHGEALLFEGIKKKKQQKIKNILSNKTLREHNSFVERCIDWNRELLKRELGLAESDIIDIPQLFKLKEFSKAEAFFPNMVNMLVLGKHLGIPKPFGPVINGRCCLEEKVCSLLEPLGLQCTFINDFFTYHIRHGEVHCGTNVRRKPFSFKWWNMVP

SMILES: COC(=O)[C@H](CCCCNC(=N)CCl)NC(C)=O
- Ratio [1]: 50 M⁻¹ min⁻¹
- Ratio [2]: 120 M⁻¹ min⁻¹
- Ratio [3]: 62 M⁻¹ min⁻¹

SMILES: N=C(N)CCl
- Ratio [1]: 60 M⁻¹ min⁻¹
- Ratio [2]: 9 M⁻¹ min⁻¹
- Ratio [3]: 32 M⁻¹ min⁻¹

SMILES: COC(=O)[C@H](CCNC(=N)CCl)NC(C)=O
- Ratio [1]: 183 M⁻¹ min⁻¹
- Ratio [2]: 50 M⁻¹ min⁻¹
- Ratio [3]: 111 M⁻¹ min⁻¹

SMILES: COC(=O)[C@H](CCCNC(=N)CCl)NC(C)=O
- Ratio [1]: 865 M⁻¹ min⁻¹
- Ratio [2]: 167 M⁻¹ min⁻¹
- Ratio [3]: 497 M⁻¹ min⁻¹
